Reference: patent publication US20230077362A1 (CORTEVA AGRISCIENCE LLC, priority 2019, published 2023)
Like-named read-outs stand apart in the source and are kept apart here.

Assays:
[1] = test system: Cabbage Looper (Trichoplusia ni) ("CL"), second instar larvae; assay: Bioassay on cabbage looper (CL), 128-well diet tray assay; type: in vivo; details: for pest or weed control at 50 µg/cm2 / mortality at 50 µg/cm2: Trichoplusia ni; for mortality at 50 µg/cm2 / CL rating: Table ABC, species CL; for mortality at 50 µg/cm2: 128-well diet tray assay, second instar larvae, read-out: CL rating (% control or mortality class); for CL rating: C = not tested, D = no activity noticed
Method in brief: (§1)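 After sealing with a clear self-adhesive lid, the trays are incubated at 25° C. with 14 h light and 10 h dark for 5 to 7 days; mortality in each well is recorded as a percentage and averaged across the eight wells.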

[2] = test system: Beet Armyworm (Spodoptera exigua) ("BAW"), second instar larvae; assay: Bioassay on beet armyworm (BAW), 128-well diet tray assay; type: in vivo; details: for pest or weed control at 50 µg/cm2: Spodoptera exigua; for BAW rating (% control or mortality class) / BAW rating: Table ABC, species BAW; for BAW rating (% control or mortality class): 128-well diet tray assay, second instar larvae; for BAW rating: C = not tested, D = no activity noticed
Method in brief: as §1

[3] = read-out: CL (Biological Results, rating)
[4] = read-out: BAW (Biological Results, rating)

Compound: CC(=O)c1cc(-c2ncn(-c3ccc(OC(F)(F)F)cc3)n2)ccc1NC(=O)/N=C1\SCC(=O)N1c1cc(C)ccc1C(C)C [Compound J395, (Z)-1-(2-Acetyl-4-(1-(4-(trifluoromethoxy)phenyl)-1H-1,2,4-triazol-3-yl)phenyl)-3-(3-(2-isopropyl-5-methylphenyl)-4-oxothiazolidin-2-ylidene)urea]
- pest or weed control at 50 µg/cm2 ([1]; read-out: CL rating): 50 to 100%
- pest or weed control at 50 µg/cm2 ([2]; read-out: BAW rating): 50 to 100%

Compound: Cc1cc(-c2ncn(-c3ccc(S(=O)(=O)C(F)(F)F)cc3)n2)ccc1NC(=O)/N=C1\SCC(=O)N1c1cc(N(C)C)c(F)cc1C(C)C [Compound J375, (Z)-1-(3-(5-(Dimethylamino)-4-fluoro-2-isopropylphenyl)-4-oxothiazolidin-2-ylidene)-3-(2-methyl-4-(1-(4-((trifluoromethyl)sulfonyl)phenyl)-1H-1,2,4-triazol-3-yl)phenyl)urea]
- pest or weed control at 50 µg/cm2 ([1]; read-out: CL rating): 50 to 100%
- pest or weed control at 50 µg/cm2 ([2]; read-out: BAW rating): 50 to 100%

Compound: Cc1ccc(COCC(F)(F)F)c(N2C(=O)CS/C2=N\C(=O)Nc2ccc(-n3cnc(-c4ccc(OC(F)(F)F)cc4)c3)cc2Cl)c1 [Compound J786, (Z)-1-(2-Chloro-4-(4-(4-(trifluoromethoxy)phenyl)-1H-imidazol-1-yl)phenyl)-3-(3-(5-methyl-2-((2,2,2-trifluoroethoxy)methyl)phenyl)-4-oxothiazolidin-2-ylidene)urea]
- mortality at 50 µg/cm2 [1]: 50 to 100%
- BAW rating (% control or mortality class) [2]: A (50-100)

Compound: Cc1ccc(COCC(F)(F)F)c(N2C(=O)CS/C2=N\C(=O)Nc2ccc(-c3cn(-c4ccc(C(F)(F)F)cn4)cn3)cc2)c1 [Compound J521, (Z)-1-(3-(5-Methyl-2-((2,2,2-trifluoroethoxy)methyl)phenyl)-4-oxothiazolidin-2-ylidene)-3-(4-(1-(5-(trifluoromethyl)pyridin-2-yl)-1H-imidazol-4-yl)phenyl)urea]
- pest or weed control at 50 µg/cm2 ([1]; read-out: CL rating): 50 to 100%
- pest or weed control at 50 µg/cm2 ([2]; read-out: BAW rating): 50 to 100%

Compound: CCOCc1ccc(C)cc1N1C(=O)CS/C1=N\C(=O)Nc1ccc(-c2ncn(-c3ccc(C(F)(F)C(F)(F)F)cc3)n2)cc1F [Compound J795, (Z)-1-(3-(2-(Ethoxymethyl)-5-methylphenyl)-4-oxothiazolidin-2-ylidene)-3-(2-fluoro-4-(1-(4-(perfluoroethyl)phenyl)-1H-1,2,4-triazol-3-yl)phenyl)urea]
- mortality at 50 µg/cm2 [1]: 50 to 100%
- BAW rating (% control or mortality class) [2]: A (50-100)

Compound: COCc1ccc(N(C)C)cc1N1C(=O)CS/C1=N\C(=O)Nc1ccc(-n2cnc(-c3ccc(OC(F)(F)F)cc3)c2)cc1Cl [Compound J789, (Z)-1-(2-Chloro-4-(4-(4-(trifluoromethoxy)phenyl)-1H-imidazol-1-yl)phenyl)-3-(3-(5-(dimethylamino)-2-(methoxymethyl)phenyl)-4-oxothiazolidin-2-ylidene)urea]
- mortality at 50 µg/cm2 [1]: 50 to 100%
- BAW rating (% control or mortality class) [2]: A (50-100)

Compound: Cc1ccc(COCC(F)F)c(N2C(=O)CS/C2=N\C(=O)Nc2ccc(-n3cnc(-c4ccc(OC(F)(F)F)cc4)c3)cc2Cl)c1 [Compound J787, (Z)-1-(2-Chloro-4-(4-(4-(trifluoromethoxy)phenyl)-1H-imidazol-1-yl)phenyl)-3-(3-(2-((2,2-difluoroethoxy)methyl)-5-methylphenyl)-4-oxothiazolidin-2-ylidene)urea]
- mortality at 50 µg/cm2 [1]: 50 to 100%
- BAW rating (% control or mortality class) [2]: A (50-100)

Compound: CCCc1ccc(N(C)C)cc1N1C(=O)CS/C1=N\C(=O)Nc1ccc(-n2cnc(-c3ccc(OC(F)(F)F)cc3)n2)cc1 [Compound J409, (Z)-1-(3-(5-(Dimethylamino)-2-propylphenyl)-4-oxothiazolidin-2-ylidene)-3-(4-(3-(4-(trifluoromethoxy)phenyl)-1H-1,2,4-triazol-1-yl)phenyl)urea]
- pest or weed control at 50 µg/cm2 ([1]; read-out: CL rating): 50 to 100%
- pest or weed control at 50 µg/cm2 ([2]; read-out: BAW rating): 50 to 100%

Compound: Cc1ccc(COCC(F)(F)F)c(N2C(=O)CS/C2=N\C(=O)Nc2ccc(-c3ncn(-c4ccc(SC(F)(F)F)cc4)n3)cc2F)c1 [Compound J186, (Z)-1-(2-Fluoro-4-(1-(4-((trifluoromethyl)thio)phenyl)-1H-1,2,4-triazol-3-yl)phenyl)-3-(3-(5-methyl-2-((2,2,2-trifluoroethoxy)methyl)phenyl)-4-oxothiazolidin-2-ylidene)urea]
- pest or weed control at 50 µg/cm2 [1, 3]: 50 to 100%
- pest or weed control at 50 µg/cm2 [2, 4]: 50 to 100%

Compound: Cc1ccc(C(C)C)c(N2C(=O)CS/C2=N\C(=O)Nc2ccc(-c3ncn(-c4ccc(OCC(F)(F)F)cc4)n3)cc2F)c1 [Compound J57, (Z)-1-(2-Fluoro-4-(1-(4-(2,2,2-trifluoroethoxy)phenyl)-1H-1,2,4-triazol-3-yl)phenyl)-3-(3-(2-isopropyl-5-methylphenyl)-4-oxothiazolidin-2-ylidene)urea]
- pest or weed control at 50 µg/cm2 [1, 3]: 50 to 100%
- pest or weed control at 50 µg/cm2 [2, 4]: 50 to 100%

Compound: CN(C)c1ccc(C(F)(F)F)c(N2C(=O)CS/C2=N\C(=O)Nc2ccc(-c3nnc(-c4ccc(OC(F)(F)F)cc4)o3)cc2F)c1 [Compound J611, (Z)-1-(3-(5-(Dimethylamino)-2-(trifluoromethyl)phenyl)-4-oxothiazolidin-2-ylidene)-3-(2-fluoro-4-(5-(4-(trifluoromethoxy)phenyl)-1,3,4-oxadiazol-2-yl)phenyl)urea]
- pest or weed control at 50 µg/cm2 ([1]; read-out: CL rating): 50 to 100%
- pest or weed control at 50 µg/cm2 ([2]; read-out: BAW rating): 50 to 100%

Compound: Cc1ccc(C(F)(F)F)c(N2C(=O)CS/C2=N\C(=O)Nc2ccc(-c3ncn(-c4ccc(OC(F)(F)F)cc4)n3)cc2C#N)c1 [Compound J244, (Z)-1-(2-Cyano-4-(1-(4-(trifluoromethoxy)phenyl)-1H-1,2,4-triazol-3-yl)phenyl)-3-(3-(5-methyl-2-(trifluoromethyl)phenyl)-4-oxothiazolidin-2-ylidene)urea]
- pest or weed control at 50 µg/cm2 [1, 3]: 50 to 100%
- pest or weed control at 50 µg/cm2 [2, 4]: 50 to 100%

Compound: COc1ccc(C(C)C)c(N2C(=O)CS/C2=N\C(=O)Nc2ccc(-c3ncn(-c4ccc(OC(F)(F)F)cn4)n3)cc2F)c1 [Compound J239, (Z)-1-(2-Fluoro-4-(1-(5-(trifluoromethoxy)pyridin-2-yl)-1H-1,2,4-triazol-3-yl)phenyl)-3-(3-(2-isopropyl-5-methoxyphenyl)-4-oxothiazolidin-2-ylidene)urea]
- pest or weed control at 50 µg/cm2 [1, 3]: 50 to 100%
- pest or weed control at 50 µg/cm2 [2, 4]: 50 to 100%

Compound: CCOC(C)c1ccc(C)cc1N1C(=O)CS/C1=N\C(=O)Nc1ccc(-c2cn(-c3ccc(S(F)(F)(F)(F)F)cc3)cn2)cc1F (stereo not drawn) [Compound J594, (Z)-1-(3-(2-(1-Ethoxyethyl)-5-methylphenyl)-4-oxothiazolidin-2-ylidene)-3-(2-fluoro-4-(1-(4-(pentafluoro-λ^6-sulfaneyl)phenyl)-1H-imidazol-4-yl)phenyl)urea]
- pest or weed control at 50 µg/cm2 ([1]; read-out: CL rating): 50 to 100%
- pest or weed control at 50 µg/cm2 ([2]; read-out: BAW rating): 50 to 100%

Compound: Cc1cccc(N2C(=O)CS/C2=N\C(=O)Nc2ccc(-c3ncn(-c4ccc(OC(F)(F)F)cc4)n3)cc2F)c1COCC(F)(F)F [Compound J566]
- CL rating [1]: A (50-100)
- BAW rating [2]: A (50-100)

Compound: CC(=O)c1cc(-c2ncn(-c3ccc(OC(F)(F)F)cc3)n2)ccc1NC(=O)/N=C1\SCC(=O)N1c1cc(C)ccc1COCC(F)(F)F [Compound J398, (Z)-1-(2-Acetyl-4-(1-(4-(trifluoromethoxy)phenyl)-1H-1,2,4-triazol-3-yl)phenyl)-3-(3-(5-methyl-2-((2,2,2-trifluoroethoxy)methyl)phenyl)-4-oxothiazolidin-2-ylidene)urea]
- pest or weed control at 50 µg/cm2 ([1]; read-out: CL rating): 50 to 100%
- pest or weed control at 50 µg/cm2 ([2]; read-out: BAW rating): 50 to 100%

Compound: Cc1ccc(COCC(F)(F)F)c(N2C(=O)C(Cl)(Cl)S/C2=N\C(=O)Nc2ccc(-c3ncn(-c4ccc(OC(F)(F)F)cc4)n3)cc2F)c1 [Compound J458, (Z)-1-(5,5-dichloro-3-(5-methyl-2-((2,2,2-trifluoroethoxy)methyl)phenyl)-4-oxothiazolidin-2-ylidene)-3-(2-fluoro-4-(1-(4-(trifluoromethoxy)phenyl)-1H-1,2,4-triazol-3-yl)phenyl)urea]
- pest or weed control at 50 µg/cm2 ([1]; read-out: CL rating): 50 to 100%
- pest or weed control at 50 µg/cm2 ([2]; read-out: BAW rating): 50 to 100%

Compound: Cc1ccc(COCC(F)(F)F)c(N2C(=O)C(CO)(CO)S/C2=N\C(=O)Nc2ccc(-c3ncn(-c4ccc(OC(F)(F)F)cc4)n3)cc2F)c1 [Compound J778, (Z)-1-(5,5-Bis(hydroxymethyl)-3-(5-methyl-2-((2,2,2-trifluoroethoxy)methyl)phenyl)-4-oxothiazolidin-2-ylidene)-3-(2-fluoro-4-(1-(4-(trifluoromethoxy)phenyl)-1H-1,2,4-triazol-3-yl)phenyl)urea]
- pest or weed control at 50 µg/cm2 ([1]; read-out: CL rating): 50 to 100%
- pest or weed control at 50 µg/cm2 ([2]; read-out: BAW rating): 50 to 100%

Compound: Cc1cc(COCC(F)(F)F)c(N2C(=O)CS/C2=N\C(=O)Nc2ccc(-c3ncn(-c4ccc(OC(F)(F)F)cc4)n3)cc2F)cc1C [Compound J455]
- CL rating [1]: A (50-100)
- BAW rating [2]: A (50-100)

Compound: COC(c1ccc(C)cc1N1C(=O)CS/C1=N\C(=O)Nc1ccc(-n2cnc(-c3ccc(C(F)(F)F)cc3)n2)cc1F)C(F)(F)F (stereo not drawn) [Compound J696, (Z)-1-(2-Fluoro-4-(3-(4-(trifluoromethyl)phenyl)-1H-1,2,4-triazol-1-yl)phenyl)-3-(3-(5-methyl-2-(2,2,2-trifluoro-1-methoxyethyl)phenyl)-4-oxothiazolidin-2-ylidene)urea]
- pest or weed control at 50 µg/cm2 ([1]; read-out: CL rating): 50 to 100%
- pest or weed control at 50 µg/cm2 ([2]; read-out: BAW rating): 50 to 100%

Compound: COc1ccc(C(C)C)c(N2C(=O)CS/C2=N\C(=O)Nc2ccc(-c3ncn(-c4ccc(OC(F)(F)C(F)(F)F)cc4)n3)c(C)c2)c1 [Compound J7, (Z)-1-(3-(2-Isopropyl-5-methoxyphenyl)-4-oxothiazolidin-2-ylidene)-3-(3-methyl-4-(1-(4-(perfluoroethoxy)phenyl)-1H-1,2,4-triazol-3-yl)phenyl)urea]
- pest or weed control at 50 µg/cm2 [1, 3]: 50 to 100%
- pest or weed control at 50 µg/cm2 [2, 4]: 50 to 100%
